Measured values taken from patent US5395947A, “Platinum(II) complex and processes for preparing the same” (Sunkyong Industries, Ltd., priority 1991, dated 1995).

Tests used:
[1] = tested on: murine leukemia L1210 cells; assay: Growth inhibition test on cultured murine leukemia L1210 cells; type: cell-based; conditions: 48 hours, 37° C., Trypan blue viability
Outline: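 Read-out is Trypan blue (0.17%) viability versus compound-free controls. Cells, 1×10^5, were cultured 48 h at 37° C under 5% CO2 in RPMI 1640/10% FCS containing various compound concentrations.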

[2] = tested on: ICR mice; assay: Acute toxicity test; type: in vivo; set-up: Lethality: unit not given here; conditions: for Lethality: 10080 min
Method: 7-week-old ICR mice(male: 34±2 g; female: 31±2 g) were fed with solid food and water under the condition of 23±1° C. temperature and 65±5% humidity before the test.
Each treatment group consisted of 6 mice. The test compounds were administered intraperitoneally.
For 7 days after the administration, the appearance and the fate of the tested animals were recorded. The dead animals were subjected to autopsy and their visible pathological changes were observed. Their viscerals were stored in 10% formalin solution.

[3] = Test for water solubility; type: physicochemical; conditions: water
Description: 3. Test for water solubility
A standard plot of UV absorbance(220 nm) vs. concentration was made; and employed to determine water-solubility.
The mixture was then passed through a 0.45 micron disposable membrane filter before dilution and UV measurement.

[4] = tested on: murine leukemia L1210; assay: Antitumor activity test on murine leukemia L1210 in vivo; set-up: species or system male BDF1 mice; conditions: days 1, 5, 9
Outline: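 Male BDF1 mice (6 weeks, 21±3 g; n=7) received 1×10^6 leukemia cells into the peritoneum on day 0, then test compound suspended or dissolved in 0.5% CMC i.p. on days 1, 5, 9. Activity expressed as T/C %, mean survival treated versus 0.5% CMC-injected controls.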

CC(C)C1O[C@H](CN)[C@@H](CN)O1.O=C1C[O][Pt][O]1 [Example 7, (glycolato-O,O')[(4R,5R)-4,5-bis(aminomethyl)-2-isopropyl-1,3-dioxolane]platinum(II)]
IC50 (concentration required for 50% inhibition of growth) [1]: 0.06 mg/L
Number of dead mice for 7 days ([2]; female, 25.0 mg/kg i.p.): 0/6
Number of dead mice, 1st day ([2]; female, 25.0 mg/kg i.p.): 0/6
Number of dead mice for 7 days ([2]; female, 32.5 mg/kg i.p.): 0/6
Number of dead mice, 1st day ([2]; female, 32.5 mg/kg i.p.): 0/6
Number of dead mice for 7 days ([2]; female, 42.3 mg/kg i.p.): 1/6
Number of dead mice, 1st day ([2]; female, 42.3 mg/kg i.p.): 0/6
Number of dead mice, 3rd day ([2]; female, 42.3 mg/kg i.p.): 1/6
Lethality ([2]; female, 42.3 mg/kg i.p.): 16.7
Number of dead mice for 7 days ([2]; female, 55.0 mg/kg i.p.): 2/6
Number of dead mice, 1st day ([2]; female, 55.0 mg/kg i.p.): 0/6
Number of dead mice, 3rd day ([2]; female, 55.0 mg/kg i.p.): 1/6
Number of dead mice, 4th day ([2]; female, 55.0 mg/kg i.p.): 1/5
Lethality ([2]; female, 55.0 mg/kg i.p.): 33.3
Number of dead mice for 7 days ([2]; female, 71.4 mg/kg i.p.): 4/6
Number of dead mice, 1st day ([2]; female, 71.4 mg/kg i.p.): 0/6
Number of dead mice, 3rd day ([2]; female, 71.4 mg/kg i.p.): 3/6
Number of dead mice, 4th day ([2]; female, 71.4 mg/kg i.p.): 1/3
Lethality ([2]; female, 71.4 mg/kg i.p.): 66.7
Number of dead mice for 7 days ([2]; male, 25.0 mg/kg i.p.): 0/6
Number of dead mice, 1st day ([2]; male, 25.0 mg/kg i.p.): 0/6
Number of dead mice for 7 days ([2]; male, 32.5 mg/kg i.p.): 0/6
Number of dead mice, 1st day ([2]; male, 32.5 mg/kg i.p.): 0/6
Number of dead mice for 7 days ([2]; male, 42.3 mg/kg i.p.): 2/6
Number of dead mice, 1st day ([2]; male, 42.3 mg/kg i.p.): 0/6
Number of dead mice, 3rd day ([2]; male, 42.3 mg/kg i.p.): 1/6
Number of dead mice, 5th day ([2]; male, 42.3 mg/kg i.p.): 1/5
Lethality ([2]; male, 42.3 mg/kg i.p.): 33.3
Number of dead mice for 7 days ([2]; male, 55.0 mg/kg i.p.): 2/6
Number of dead mice, 1st day ([2]; male, 55.0 mg/kg i.p.): 0/6
Number of dead mice, 3rd day ([2]; male, 55.0 mg/kg i.p.): 1/6
Number of dead mice, 4th day ([2]; male, 55.0 mg/kg i.p.): 1/5
Lethality ([2]; male, 55.0 mg/kg i.p.): 33.3
Number of dead mice for 7 days ([2]; male, 71.4 mg/kg i.p.): 4/6
Number of dead mice, 1st day ([2]; male, 71.4 mg/kg i.p.): 0/6
Number of dead mice, 3rd day ([2]; male, 71.4 mg/kg i.p.): 2/6
Number of dead mice, 4th day ([2]; male, 71.4 mg/kg i.p.): 2/4
Lethality ([2]; male, 71.4 mg/kg i.p.): 66.7
Solubility in water [3]: > 30 mg/mL
T/C (%) ([4]; 3.1 mg/kg i.p.): 155%
T/C (%) ([4]; 6.2 mg/kg i.p.): 166%
T/C (%) ([4]; 12.5 mg/kg i.p.): 191%
T/C (%) ([4]; 25 mg/kg i.p.): toxic
T/C (%) ([4]; 50 mg/kg i.p.): toxic

O=C1[O][Pt-2]2([NH2+]CC3OCOC3C[NH2+]2)[O]C(=O)C12CCC2 [Example 20, cis-cyclobutane-1,1-dicarboxylato [(4R,5R)-4,5-bis(aminomethyl)-1,3-dioxolane]platinum (II)]
IC50 (concentration required for 50% inhibition of growth) [1]: 1.28 mg/L
Number of dead mice for 7 days ([2]; female, 94 mg/kg i.p.): 0/6
Number of dead mice, 1st day ([2]; female, 94 mg/kg i.p.): 0/6
Number of dead mice for 7 days ([2]; female, 123 mg/kg i.p.): 2/6
Number of dead mice, 1st day ([2]; female, 123 mg/kg i.p.): 0/6
Number of dead mice, 4th day ([2]; female, 123 mg/kg i.p.): 2/6
Lethality ([2]; female, 123 mg/kg i.p.): 33.3
Number of dead mice for 7 days ([2]; female, 160 mg/kg i.p.): 4/6
Number of dead mice, 1st day ([2]; female, 160 mg/kg i.p.): 0/6
Number of dead mice, 4th day ([2]; female, 160 mg/kg i.p.): 2/6
Number of dead mice, 5th day ([2]; female, 160 mg/kg i.p.): 2/4
Lethality ([2]; female, 160 mg/kg i.p.): 66.7
Number of dead mice for 7 days ([2]; female, 208 mg/kg i.p.): 6/6
Number of dead mice, 1st day ([2]; female, 208 mg/kg i.p.): 0/6
Number of dead mice, 3rd day ([2]; female, 208 mg/kg i.p.): 1/6
Number of dead mice, 4th day ([2]; female, 208 mg/kg i.p.): 5/5
Lethality ([2]; female, 208 mg/kg i.p.): 100.0
Number of dead mice for 7 days ([2]; female, 270 mg/kg i.p.): 6/6
Number of dead mice, 1st day ([2]; female, 270 mg/kg i.p.): 0/6
Number of dead mice, 2nd day ([2]; female, 270 mg/kg i.p.): 4/6
Number of dead mice, 3rd day ([2]; female, 270 mg/kg i.p.): 2/2
Lethality ([2]; female, 270 mg/kg i.p.): 100.0
Number of dead mice for 7 days ([2]; male, 94 mg/kg i.p.): 0/6
Number of dead mice, 1st day ([2]; male, 94 mg/kg i.p.): 0/6
Number of dead mice for 7 days ([2]; male, 123 mg/kg i.p.): 2/6
Number of dead mice, 1st day ([2]; male, 123 mg/kg i.p.): 1/6
Number of dead mice, 5th day ([2]; male, 123 mg/kg i.p.): 1/5
Lethality ([2]; male, 123 mg/kg i.p.): 33.3
Number of dead mice for 7 days ([2]; male, 160 mg/kg i.p.): 5/6
Number of dead mice, 1st day ([2]; male, 160 mg/kg i.p.): 0/6
Number of dead mice, 4th day ([2]; male, 160 mg/kg i.p.): 2/6
Number of dead mice, 5th day ([2]; male, 160 mg/kg i.p.): 1/4
Number of dead mice, 6th day ([2]; male, 160 mg/kg i.p.): 2/3
Lethality ([2]; male, 160 mg/kg i.p.): 83.3
Number of dead mice for 7 days ([2]; male, 208 mg/kg i.p.): 6/6
Number of dead mice, 1st day ([2]; male, 208 mg/kg i.p.): 0/6
Number of dead mice, 4th day ([2]; male, 208 mg/kg i.p.): 6/6
Lethality ([2]; male, 208 mg/kg i.p.): 100.0
Number of dead mice for 7 days ([2]; male, 270 mg/kg i.p.): 6/6
Number of dead mice, 1st day ([2]; male, 270 mg/kg i.p.): 0/6
Number of dead mice, 2nd day ([2]; male, 270 mg/kg i.p.): 4/6
Number of dead mice, 3rd day ([2]; male, 270 mg/kg i.p.): 2/2
Lethality ([2]; male, 270 mg/kg i.p.): 100.0
Solubility in water [3]: 3.1 mg/mL
T/C (%) ([4]; 6.2 mg/kg i.p.): 122%
T/C (%) ([4]; 12.5 mg/kg i.p.): 187%
T/C (%) ([4]; 25 mg/kg i.p.): 137%
T/C (%) ([4]; 50 mg/kg i.p.): 193%
T/C (%) ([4]; 100 mg/kg i.p.): 271%

CC1(C)O[C@H](CN)[C@@H](CN)O1.O=C1C[O][Pt][O]1 [Example 2, (glycolato-O,O')[(4R,5R)-4,5-bis(aminomethyl)-2,2-dimethyl-1,3-dioxolane]platinum(II)]
IC50 (concentration required for 50% inhibition of growth) [1]: 0.15 mg/L
Number of dead mice for 7 days ([2]; female, 25.0 mg/kg i.p.): 0/6
Number of dead mice, 1st day ([2]; female, 25.0 mg/kg i.p.): 0/6
Number of dead mice for 7 days ([2]; female, 32.5 mg/kg i.p.): 3/6
Number of dead mice, 1st day ([2]; female, 32.5 mg/kg i.p.): 0/6
Number of dead mice, 3rd day ([2]; female, 32.5 mg/kg i.p.): 2/6
Number of dead mice, 4th day ([2]; female, 32.5 mg/kg i.p.): 1/4
Lethality ([2]; female, 32.5 mg/kg i.p.): 50.0
Number of dead mice for 7 days ([2]; female, 42.3 mg/kg i.p.): 4/6
Number of dead mice, 1st day ([2]; female, 42.3 mg/kg i.p.): 0/6
Number of dead mice, 3rd day ([2]; female, 42.3 mg/kg i.p.): 3/6
Number of dead mice, 4th day ([2]; female, 42.3 mg/kg i.p.): 1/3
Lethality ([2]; female, 42.3 mg/kg i.p.): 66.7
Number of dead mice for 7 days ([2]; female, 55.0 mg/kg i.p.): 6/6
Number of dead mice, 1st day ([2]; female, 55.0 mg/kg i.p.): 0/6
Number of dead mice, 3rd day ([2]; female, 55.0 mg/kg i.p.): 4/6
Number of dead mice, 4th day ([2]; female, 55.0 mg/kg i.p.): 1/2
Number of dead mice, 5th day ([2]; female, 55.0 mg/kg i.p.): 1/1
Lethality ([2]; female, 55.0 mg/kg i.p.): 100.0
Number of dead mice for 7 days ([2]; female, 71.4 mg/kg i.p.): 6/6
Number of dead mice, 1st day ([2]; female, 71.4 mg/kg i.p.): 0/6
Number of dead mice, 3rd day ([2]; female, 71.4 mg/kg i.p.): 4/6
Number of dead mice, 4th day ([2]; female, 71.4 mg/kg i.p.): 2/2
Lethality ([2]; female, 71.4 mg/kg i.p.): 100.0
Number of dead mice for 7 days ([2]; male, 25.0 mg/kg i.p.): 0/6
Number of dead mice, 1st day ([2]; male, 25.0 mg/kg i.p.): 0/6
Number of dead mice for 7 days ([2]; male, 32.5 mg/kg i.p.): 3/6
Number of dead mice, 1st day ([2]; male, 32.5 mg/kg i.p.): 0/6
Number of dead mice, 3rd day ([2]; male, 32.5 mg/kg i.p.): 1/6
Number of dead mice, 4th day ([2]; male, 32.5 mg/kg i.p.): 1/5
Number of dead mice, 5th day ([2]; male, 32.5 mg/kg i.p.): 1/4
Lethality ([2]; male, 32.5 mg/kg i.p.): 50.0
Number of dead mice for 7 days ([2]; male, 42.3 mg/kg i.p.): 5/6
Number of dead mice, 1st day ([2]; male, 42.3 mg/kg i.p.): 0/6
Number of dead mice, 3rd day ([2]; male, 42.3 mg/kg i.p.): 3/6
Number of dead mice, 4th day ([2]; male, 42.3 mg/kg i.p.): 2/3
Lethality ([2]; male, 42.3 mg/kg i.p.): 83.3
Number of dead mice for 7 days ([2]; male, 55.0 mg/kg i.p.): 6/6
Number of dead mice, 1st day ([2]; male, 55.0 mg/kg i.p.): 0/6
Number of dead mice, 3rd day ([2]; male, 55.0 mg/kg i.p.): 4/6
Number of dead mice, 4th day ([2]; male, 55.0 mg/kg i.p.): 1/2
Number of dead mice, 5th day ([2]; male, 55.0 mg/kg i.p.): 1/1
Lethality ([2]; male, 55.0 mg/kg i.p.): 100.0
Number of dead mice for 7 days ([2]; male, 71.4 mg/kg i.p.): 6/6
Number of dead mice, 1st day ([2]; male, 71.4 mg/kg i.p.): 0/6
Number of dead mice, 3rd day ([2]; male, 71.4 mg/kg i.p.): 4/6
Number of dead mice, 4th day ([2]; male, 71.4 mg/kg i.p.): 2/2
Lethality ([2]; male, 71.4 mg/kg i.p.): 100.0
Solubility in water [3]: 17.5 mg/mL
T/C (%) ([4]; 3.1 mg/kg i.p.): 112%
T/C (%) ([4]; 6.2 mg/kg i.p.): 179%
T/C (%) ([4]; 12.5 mg/kg i.p.): 201%
T/C (%) ([4]; 25 mg/kg i.p.): toxic
T/C (%) ([4]; 50 mg/kg i.p.): toxic
